Measured values taken from US11673927B2, “Antitumor agent targeting HGF-regulated tyrosine kinase substrate (HGS)” (TOKYO METROPOLITAN INSTITUTE OF MEDICAL SCIENCE, priority 2018, dated 2023).

Legend:
COLO 205 cells = experiment: In vivo Xenograft test; parameters: species or system BALB/c Slc-nu/nu nude mice; conditions: for tumor growth inhibitory effect compared with OP12-462, OP10-507 and OP10-527: COLO 205 xenograft, same method as Example 2 1.(2), FIGS. 6A to 6C; for tumor growth of COLO 205 cells (tumor volume): nude mice, 5 mg/kg body weight, tail vein, once daily Day 0 to Day 9, versus PBS
Procedure: COLO 205 cells (1E+6 cells/0.2 ml PBS) were inoculated subcutaneously into the back of BALB/c Slc-nu/nu nude mice (female) (n=5 or 6). The day after 10 days was set as Day 0, and PBS or the test oligopeptides (OP12-462, OP10-507 and OP10-527) (5 mg/kg body weight) was administered as a 0.2 ml PBS solution in the tail vein once daily for 10 days from Day 0 to Day 9. The size of the tumor formed was measured once daily from Day 0. The tumor volume was estimated by measuring the minor axis and major axis of the tumor (tumor volume=(semi-minor axis×semi-minor axis×semi-major axis×π)/6).
With the same method as in the above “[Example 2] 1. (2)”, the tumor growth inhibitory ability was evaluated for OP10-7, OP10-10 and OP10-11, which are typical examples of conventional HGS/C constituent oligopeptides.

[1] = tested on: B16 cells or COLO 205 cells; experiment: In vitro anchorage-independent growth inhibition test of OP12-462 alanine substituted peptides; assay type: cell-based; conditions: compared with the sample untreated with an oligopeptide (vehicle) or with OP12-462, FIG. 5
Excerpt: (§1) In the present example, the Ultra-Low Attachment Surface Corning Costar 96 Well Cell Culture Plate 3474 (Corning) was used as an Ultra-Low Attachment Surface (ULAS) plate, and Tissue Culture Treated Corning Costar 96 Well Cell Culture Plate 3595 (Corning) was used as a normal plate.
(§2) As cells, mouse melanoma B16 cells and human colorectal cancer-derived COLO 205 cells were used, and Cell Counting Kit-8 (Dojindo Laboratories) was used to evaluate cell growth.
(§3) B16 cells or COLO 205 cells (2E+3 cells/0.2 ml Opti-MEM medium, 5% FBS/well) were seeded in each well of the ULAS plate and normal plate. The test oligopeptides (OP12-462, OP10-507 and OP10-527) (0, 0.16, 0.4, 8 nmol) were each added and cultured at 37° C.
(§4) After 7 days, 0.1 ml of Cell Counting Kit-8 solution (5-fold PBS diluted solution) was added, and the absorbance A450 nm was immediately measured and set as the TO blank value.
(§5) After incubating at 37° C. for 2 hours, the absorbance A450 nm was measured again and set as T2. The change=T2−T0 was defined as the anchorage-independent growth activity value or the anchorage-dependent growth activity value. The cell growth activity when adding a test oligopeptide was quantified as the relative ratio to the cell growth activity when no test oligopeptide was added.
As was in the above “1. […]

mouse melanoma B16 cells [2] = experiment: Experimental lung metastasis inhibition test; assay type: in vivo, C57BL/6 mice; conditions: B16 cells incubated with 40 nmol oligopeptide 2 hours, tail vein, colonies counted after 28 days, versus vehicle
Procedure: The metastasis inhibitory effect of OP12-462 on the experimental lung metastasizing ability of mouse melanoma B16 cells was examined.
First, a PBS solution (0.2 ml PBS) of mouse melanoma B16 cells (1E+5 cells) and the test oligopeptide (OP12-462) (40 nmol) was incubated at 37° C. for 2 hours. After incubation, this solution was administered to C57BL/6 mice (female) in the tail vein. The number of B16 cell metastatic tumor colonies in the mouse lung was counted 28 days after the tail vein administration of B16 cells. The ability of the oligopeptide OP12-462 to inhibit metastasis was quantified as the relative ratio of the number of the tumor colonies treated with the oligopeptide to the number of tumor colonies of B16 cells untreated with the oligopeptide.
As was in the above “1. (3)”, an experimental lung metastasis inhibition test was conducted on the oligopeptide OP12-462 and the OP12-462 alanine substituted peptides.

[3] = tested on: human colorectal cancer-derived COLO 205 cells; experiment: In vitro anchorage-independent growth inhibition test (ULAS plate), COLO 205; assay type: cell-based; conditions: ULAS plate, 0, 0.16, 0.4, 8 nmol, 7 days, FIG. 2B
Excerpt: (§6) Cancer cells proliferate in an anchorage-independent manner, and normal cells proliferate in an anchorage-dependent manner.
as §1, §2, §3, §4, §5

[4] = tested on: human colorectal cancer-derived COLO 205 cells; experiment: In vitro anchorage-dependent growth inhibition test (normal plate), COLO 205; assay type: cell-based; conditions: normal plate, 0, 0.16, 0.4, 8 nmol, 7 days, FIG. 2B
Excerpt: as §6, §1, §2, §3, §4, §5

mouse melanoma B16 cells [5] = experiment: In vitro anchorage-independent growth inhibition test (ULAS plate), B16; assay type: cell-based; conditions: ULAS plate, 0, 0.16, 0.4, 8 nmol, 7 days, FIG. 2A
Excerpt: as §6, §1, §2, §3, §4, §5

mouse melanoma B16 cells [6] = experiment: In vitro anchorage-dependent growth inhibition test (normal plate), B16; assay type: cell-based; conditions: normal plate, 0, 0.16, 0.4, 8 nmol, 7 days, FIG. 2A
Excerpt: as §6, §1, §2, §3, §4, §5

[7] = target: T1, GST-labeled HGS (Human) Recombinant Protein (Homo sapiens, UniProt O14964); experiment: SPR interaction screening with immobilized GST-labeled HGS; assay type: binding; conditions: ProteOn XPR36, GST value as blank
T1 construct: purchased Abnova
T1 sequence (O14964 whole entry): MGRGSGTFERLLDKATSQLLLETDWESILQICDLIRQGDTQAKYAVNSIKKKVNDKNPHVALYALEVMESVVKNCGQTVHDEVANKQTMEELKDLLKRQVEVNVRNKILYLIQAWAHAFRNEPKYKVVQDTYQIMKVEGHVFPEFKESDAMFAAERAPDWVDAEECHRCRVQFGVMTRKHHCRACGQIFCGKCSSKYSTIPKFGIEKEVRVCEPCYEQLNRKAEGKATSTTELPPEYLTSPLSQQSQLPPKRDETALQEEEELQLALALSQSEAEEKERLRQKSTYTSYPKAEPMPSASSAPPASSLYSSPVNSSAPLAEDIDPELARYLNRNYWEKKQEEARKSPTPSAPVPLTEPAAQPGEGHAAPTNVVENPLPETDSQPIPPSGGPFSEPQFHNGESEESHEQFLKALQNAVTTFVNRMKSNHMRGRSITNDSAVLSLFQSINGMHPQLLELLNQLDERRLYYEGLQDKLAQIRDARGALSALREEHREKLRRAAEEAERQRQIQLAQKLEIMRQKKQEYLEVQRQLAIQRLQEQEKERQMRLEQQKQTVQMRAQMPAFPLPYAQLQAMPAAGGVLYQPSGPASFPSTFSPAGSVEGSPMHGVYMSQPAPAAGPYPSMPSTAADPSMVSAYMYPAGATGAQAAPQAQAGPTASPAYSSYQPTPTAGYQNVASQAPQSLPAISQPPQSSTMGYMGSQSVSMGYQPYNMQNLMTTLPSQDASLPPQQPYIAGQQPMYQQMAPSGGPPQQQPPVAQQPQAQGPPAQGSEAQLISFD
Procedure: (§7) Specifically, Glutathione S-transferase (GST)-labeled HGS (Human) Recombinant Protein (Abnova), GST-labeled STAM (Human) Recombinant Protein (Abnova), or GST (Abnova) was immobilized on a ProteOn™ GLH sensor chip.
(§8) The interactions between the HGS/C constituent oligopeptides and these immobilized proteins were measured using the ProteOn™ XPR36 interaction array system (Bio-Rad). Using the GST value as a blank value, the dissociation rate constants (Kd) of the HGS/C-constituent oligopeptides with each of GST-labeled HGS and GST-labeled STAM were measured.

[8] = target: T2, GST-labeled STAM (Human) Recombinant Protein (Homo sapiens, UniProt Q92783); experiment: SPR interaction screening with immobilized GST-labeled STAM; assay type: binding; conditions: ProteOn XPR36, GST value as blank
T2 construct: purchased Abnova
T2 sequence (Q92783 1-540): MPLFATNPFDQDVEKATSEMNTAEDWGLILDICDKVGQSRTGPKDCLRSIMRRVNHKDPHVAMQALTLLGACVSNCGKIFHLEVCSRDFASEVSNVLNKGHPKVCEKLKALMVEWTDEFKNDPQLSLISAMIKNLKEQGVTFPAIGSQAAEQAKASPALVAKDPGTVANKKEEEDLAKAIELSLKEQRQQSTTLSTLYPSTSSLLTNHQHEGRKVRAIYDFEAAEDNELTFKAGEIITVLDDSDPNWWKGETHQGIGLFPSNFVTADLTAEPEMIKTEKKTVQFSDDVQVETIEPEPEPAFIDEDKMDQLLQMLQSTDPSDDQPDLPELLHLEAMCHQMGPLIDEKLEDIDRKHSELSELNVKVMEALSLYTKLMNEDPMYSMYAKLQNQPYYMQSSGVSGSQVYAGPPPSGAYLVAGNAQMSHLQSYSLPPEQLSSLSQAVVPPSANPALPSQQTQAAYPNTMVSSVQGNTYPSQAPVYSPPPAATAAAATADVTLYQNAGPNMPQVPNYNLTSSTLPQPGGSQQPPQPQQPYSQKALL
Procedure: as §7, §8

Row | interaction with HGS, dissociation rate constant (Kd) as index [7] | interaction with STAM, dissociation rate constant (Kd) as index [8] | Sequence | tumor growth inhibitory effect compared with OP12-462, OP10-507 and OP10-527 (COLO 205 cells) | tumor growth of COLO 205 cells (tumor volume) (COLO 205 cells) | experimental lung metastasizing ability of mouse melanoma B16 cells (number of lung tumor colonies) (mouse melanoma B16 cells [2]) | anchorage-independent growth activity [3] | anchorage-dependent growth activity [4] | anchorage-independent growth activity (mouse melanoma B16 cells [5]) | anchorage-dependent growth activity (mouse melanoma B16 cells [6]) | further results
1 |  |  | ALSALREEHR [OP10-7, conventional HGS/C constituent oligopeptide] | remarkably lower | a tumor growth inhibitory effect was observed |  |  |  |  |  | 
2 |  |  | ERALYYEGLQDK [OP12-462-A3] |  |  | remarkably inhibited |  |  |  |  | in vitro anchorage-independent growth [1]: equally to or more than OP12-462
3 |  |  | ERRAYYEGLQDK [OP12-462-A4] |  |  | remarkably inhibited |  |  |  |  | 
4 |  |  | ERRLYYEGAQDK [OP12-462-A9] |  |  | remarkably inhibited |  |  |  |  | 
5 | enhanced interaction | enhanced interaction | ERRLYYEGLQDK [OP12-462] |  | statistically significantly inhibited | remarkably inhibited | strongly inhibited | did not inhibit at all or hardly inhibited | strongly inhibited | did not inhibit at all or hardly inhibited | 
6 |  |  | EYLEVQRQLA [OP10-11, conventional HGS/C constituent oligopeptide] | remarkably lower | a tumor growth inhibitory effect was observed |  |  |  |  |  | 
7 |  |  | KLEIMRQKKQ [OP10-10, conventional HGS/C constituent oligopeptide] | remarkably lower | a tumor growth inhibitory effect was observed |  |  |  |  |  | 
8 | strong interaction | strong interaction | QIQLAQKLEI [OP10-507] |  | statistically significantly inhibited |  | strongly inhibited | did not inhibit at all or hardly inhibited | strongly inhibited | did not inhibit at all or hardly inhibited | 
9 | strong interaction | strong interaction | RRLYYEGLQD [OP10-463] |  |  |  |  |  |  |  | 
10 | strong interaction | strong interaction | VQRQLAIQRL [OP10-527] |  | statistically significantly inhibited |  | strongly inhibited | did not inhibit at all or hardly inhibited | strongly inhibited | did not inhibit at all or hardly inhibited | 
